The source of these data is patent US7517517B2 (Janssen Pharmaceutica N.V., priority 2002, dated 2009).

Broadly, the IC50 is the concentration needed to halve the response being measured. A low value points to greater potency in that assay. By melting point is commonly meant the temperature, or range, at which the solid turns liquid.

Structures can show the parent of a compound that is named as a salt.

T1 sequence (P23385 19-1199): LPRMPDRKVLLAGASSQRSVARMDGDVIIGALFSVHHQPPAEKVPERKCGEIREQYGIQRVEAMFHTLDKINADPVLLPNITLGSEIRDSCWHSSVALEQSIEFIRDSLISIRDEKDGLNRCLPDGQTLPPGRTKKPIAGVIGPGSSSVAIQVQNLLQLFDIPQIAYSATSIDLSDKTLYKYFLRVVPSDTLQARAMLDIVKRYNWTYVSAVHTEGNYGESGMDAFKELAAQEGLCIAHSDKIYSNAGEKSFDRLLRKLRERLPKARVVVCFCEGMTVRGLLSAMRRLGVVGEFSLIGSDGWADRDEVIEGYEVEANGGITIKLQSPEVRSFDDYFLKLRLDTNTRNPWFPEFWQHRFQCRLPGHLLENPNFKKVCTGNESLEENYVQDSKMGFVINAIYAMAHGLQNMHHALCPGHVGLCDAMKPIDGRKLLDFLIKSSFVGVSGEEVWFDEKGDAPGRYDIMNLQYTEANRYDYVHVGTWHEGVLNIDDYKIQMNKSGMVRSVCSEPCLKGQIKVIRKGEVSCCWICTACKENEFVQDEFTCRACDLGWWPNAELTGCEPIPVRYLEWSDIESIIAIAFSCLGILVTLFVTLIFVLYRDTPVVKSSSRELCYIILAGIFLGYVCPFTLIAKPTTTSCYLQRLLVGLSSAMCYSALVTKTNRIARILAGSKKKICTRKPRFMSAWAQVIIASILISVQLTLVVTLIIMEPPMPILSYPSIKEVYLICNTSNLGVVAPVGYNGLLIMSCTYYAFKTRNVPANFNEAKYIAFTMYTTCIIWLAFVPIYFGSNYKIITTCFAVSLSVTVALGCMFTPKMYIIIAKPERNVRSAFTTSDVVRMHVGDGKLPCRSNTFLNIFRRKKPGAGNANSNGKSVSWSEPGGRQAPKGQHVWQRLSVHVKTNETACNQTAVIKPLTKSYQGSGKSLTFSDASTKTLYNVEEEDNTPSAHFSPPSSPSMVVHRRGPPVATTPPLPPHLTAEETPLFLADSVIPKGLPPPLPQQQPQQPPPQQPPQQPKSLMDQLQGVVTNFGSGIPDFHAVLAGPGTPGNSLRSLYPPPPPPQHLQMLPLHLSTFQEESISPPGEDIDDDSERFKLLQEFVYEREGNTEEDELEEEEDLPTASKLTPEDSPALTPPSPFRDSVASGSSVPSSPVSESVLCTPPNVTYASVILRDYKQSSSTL

One data set addresses T1, rat mGlu1a receptor (Rattus norvegicus, UniProt P23385).
T1 construct: host or cells: CHO-dhfr- cells
As to the kind of experiment: [3H]Compound A binding to rat mGlu1a receptor CHO-dhfr− membranes (saturation, kinetics, inhibition). As to conditions: rat mGlu1a receptor CHO-dhfr− membranes.
For the compound `N[C@H](C(=O)O)c1ccc(C(=O)O)c(O)c1` [(S)-4C-3HPG, reference compound], the “inhibition of [3H]Compound A binding (in words)” value is “did not inhibit”.

The target of a further data set is T2, cloned rat mGlu1 receptor (Rattus norvegicus, UniProt P23385).
T2 construct: expressed in transfected cells; host or cells: CHO cells
T2 sequence (P23385 19-1199): as above
Nature of the data set: Signal transduction at the cloned rat mGlu1 receptor in CHO cells (glutamate-induced Ca2+ rise, FLIPR). The data set is classed as cell-based.
Details: not given
As to `CCc1cc2cc(C(=O)C3CCC(OC)CC3)ccc2nc1C#C[Si](C)(C)C` (stereo not drawn) [Compound 14], the IC50 was 63.1 nM.

Still in this data set, the particulars now being: 50% inhibition of the glutamate-induced intracellular Ca2+ rise; CHO cells, FLIPR.
The compound `CC1Cc2cc3cc(C(=O)Cc4ccccc4)ccc3nc2O1` (stereo not drawn) [Compound 455] gave an IC50 of 8.81 nM.

For the compound `O=C(Cc1ccsc1)c1ccc2nc3c(cc2c1)CCCO3` [Compound 465], the IC50 is 7.16 nM.

`O=C(Cc1ccccc1F)c1ccc2nc3c(cc2c1)CCCO3` [Compound 477] showed an IC50 of 5.62 nM.

`COC1CCC(F)(C(=O)c2ccc3nc4c(cc3c2)CCCO4)CC1` (stereo not drawn) [Compound 488]: the 50% inhibitory concentration (IC50) is 5.37 nM.

As for `O=C(CC1CC2CCC1C2)c1ccc2nc3c(cc2c1)CCCO3` (stereo not drawn) [Compound 497], half-maximal inhibition (IC50) was put at 9.44 nM.

`O=C(Cc1ccccc1F)c1ccc2nc3c(cc2c1)CCCS3` [Compound 499]: the IC50 is 10 nM.

Turning to `Cc1cc2nc3c(cc2cc1C(=O)Cc1ccccc1)CCCO3` [Compound 504], the IC50 was 5.37 nM.

In turn, `Cc1cc2cc3c(cc2cc1C(=O)Cc1ccccc1)CCCS3` [Compound 506] showed an IC50 of 3.31 nM.

Staying with this data set, now noted: inhibition of glutamate-induced intracellular Ca2+ rise, CHO cells expressing mGlu1 receptor; compounds with pIC50 between 7 and 8.
Turning to `COC1CCCC(C(=O)c2ccc3nc4c(cc3c2)CCCO4)C1` (stereo not drawn) [Compound 440], inhibition was half-maximal at 11.7 nM (IC50).

In turn, `O=C(Cc1ccccc1)c1ccc2nc3c(cc2c1)CCS3` [Compound 441] showed an IC50 of 11.2 nM.

As for `CN(C)CC(C(=O)c1ccc2nc3c(cc2c1)CCS3)c1ccccc1` (stereo not drawn) [Compound 442], half-maximal inhibition (IC50) required 93.3 nM.

In turn, `O=C(c1ccc2nc3c(cc2c1)CCCS3)C1CC2CCC1C2` (stereo not drawn) [Compound 445] had an IC50 of 23.4 nM.

Take `O=C(Cc1ccccc1)c1ccc2nc3c(cc2c1)CCC3` [Compound 446]: the IC50 is 27.5 nM.

For `O=C(c1ccc2nc3c(cc2c1)CCS3)C1CC2CCC1C2` (stereo not drawn) [Compound 447], the IC50 is 19.1 nM.

As for `O=C(CCc1ccccc1)c1ccc2nc3c(cc2c1)CCS3` [Compound 448], the midpoint of inhibition, the IC50, lay at 49 nM.

`O=C(c1ccc2nc3c(cc2c1)CCS3)C12CC3CC(CC(C3)C1)C2` [Compound 449] gave a 50% inhibitory concentration (IC50) of 17 nM.

Compound `O=C(Cc1ccccc1)c1ccc2nc3c(cc2c1)CCCCC3` [Compound 454] gave an IC50 of 35.5 nM.

For `O=C(c1ccc2nc3c(cc2c1)CCCO3)C1CC2CCC1O2` (stereo not drawn) [Compound 456], the IC50 was 35.5 nM.

Compound `O=C(c1ccc2nc3c(cc2c1)CCCO3)C1CC2CCC1O2` (stereo not drawn) [Compound 457] showed an IC50 of 72.4 nM.

`COC1CCC(C(=O)c2ccc3nc4c(cc3c2)CCCO4)=CO1` (stereo not drawn) [Compound 460] had an IC50 of 45.7 nM.

As to `O=C(c1ccc2nc3c(cc2c1)CCCO3)C1CC2C=CC1C2` (stereo not drawn) [Compound 461], half-maximal inhibition (IC50) was put at 22.4 nM.

`O=C(Cc1ccccc1)c1ccc2nc3sccc3cc2c1` [Compound 462] showed a concentration for half-maximal inhibition (IC50) of 12.6 nM.

As for `O=C(Cc1ccccc1)c1ccc2nc3c(cc2c1)CCO3` [Compound 463], it took 10.5 nM to reach half-maximal inhibition (IC50).

On to `O=C(c1ccc2nc3c(cc2c1)CCS3)C1COc2ccccc2C1` (stereo not drawn) [Compound 466], for which inhibition was half-maximal at 79.4 nM (IC50).

With `O=C(Cc1cccc(F)c1)c1ccc2nc3c(cc2c1)CCCO3` [Compound 473], half-maximal inhibition (IC50) was put at 47.9 nM.

Take `O=C(Cc1ccc(F)c(F)c1)c1ccc2nc3c(cc2c1)CCCO3` [Compound 474]: the half-maximal inhibitory concentration (IC50) was 74.1 nM.

Compound `O=C(Cc1ccc(F)cc1)c1ccc2nc3c(cc2c1)CCCO3` [Compound 475] had a concentration for half-maximal inhibition (IC50) of 19.5 nM.

In turn, `O=C(CC1(F)CC2CCC1C2)c1ccc2nc3c(cc2c1)CCCO3` (stereo not drawn) [Compound 482] had a half-maximal inhibitory concentration (IC50) of 45.7 nM.

Regarding `O=C(Cc1ccc(F)cc1)c1ccc2nc3c(cc2c1)CCCS3` [Compound 483], the half-inhibitory concentration (IC50) is 13.8 nM.

Compound `O=C(Cc1cccc(F)c1)c1ccc2nc3c(cc2c1)CCCS3` [Compound 484] gave an IC50 of 28.8 nM.

`CC1(C(=O)c2ccc3nc4c(cc3c2)CCCO4)CC2CCC1C2` (stereo not drawn) [Compound 494] gave a 50% inhibitory concentration (IC50) of 29.5 nM.

As for `O=C(c1ccc2nc3c(cc2c1)CCS3)C1(F)CC2CCC1C2` (stereo not drawn) [Compound 496], the IC50 was 66.1 nM.

Turning to `O=C(Cc1ccc(Br)cc1)c1ccc2nc3c(cc2c1)CCCO3` [Compound 498], it took 16.6 nM to reach half-maximal inhibition (IC50).

In turn, `O=C(c1ccc2nc3c(cc2c1)CCCS3)C1COc2ccccc2O1` (stereo not drawn) [Compound 512] showed a 50% inhibitory concentration (IC50) of 74.1 nM.

For the compound `CCc1cc2cc(C(=O)Cc3ccccc3)ccc2nc1F` [Compound 527], the IC50 was 58.9 nM.

Test system in another data set: not given
Assay: not given
Details: not given
In turn, `CCc1cc2cc(-c3cc4c(o3)CCCC4)ccc2nc1C` (as salt: HCl) [Compound 526] registered a melting point of 248 °C.

As to `CCc1cc2cc(C(=O)CC(C)C)ccc2nc1Cl` [Compound 2], the melting point is 82 °C.

Regarding `CCc1cc2cc(C(=O)C3Cc4ccccc4C3)ccc2nc1Cl` [Compound 3], the melting point was determined as 145 °C.

In turn, `CCc1cc2cc(C(=O)[C@H]3CC[C@@H](OC)CC3)ccc2nc1Cl` [Compound 4] registered a melting point of 123 °C.

Consider `CCc1cc2cc(C(=O)C3CCC(OC)CC3)ccc2nc1C(C)=O` (stereo not drawn) [Compound 6], for which the melting point turned out to be 108 °C.

`CCc1cc2cc(C(=O)C3CCC(OC)CC3)ccc2[nH]c1=O` (stereo not drawn) [Compound 9] came in with a melting point of 226 °C.

`CCc1cc2cc(C(=O)[C@H]3CC[C@@H](OC)CC3)ccc2nc1NCCOC` [Compound 10]: the melting point turned out to be 115 °C.

On to `CCc1cc2cc(C(=O)C3CCC(OC)CC3)ccc2nc1C#C[Si](C)(C)C` (stereo not drawn) [Compound 14], for which the melting point came out at 114 °C.

With `CCc1cc2cc(C(=O)C3CCC(OC)CC3)ccc2nc1F` (stereo not drawn) [Compound 19], the melting point is 92 °C.

`CCc1cc2cc(C(=O)[C@H]3CC[C@H](OC)CC3)ccc2nc1F` [Compound 20] gave a melting point of 114 °C.

`CCc1cc2cc(C(=O)[C@H]3CC[C@@H](OC)CC3)ccc2nc1I` [Compound 21] registered a melting point of 110 °C.

Compound `CCc1cc2cc(C(=O)[C@H]3CC[C@@H](OC)CC3)ccc2nc1C#N` [Compound 22] came in with a melting point of 138 °C.

For the compound `CCc1cnc2ccc(C(=O)C3CCC(OC)CC3)cc2c1` (stereo not drawn) [Compound 25], the melting point is 88 °C.

On to `C=Cc1nc2ccc(C(=O)C3CCC(OC)CC3)cc2cc1CC` (stereo not drawn) [Compound 28], for which the melting point came to 108 °C.

`CCc1cc2cc(C(=O)C3CCC(OC)CC3)ccc2nc1-c1ccccc1` (stereo not drawn) [Compound 29]: the melting point is 112 °C.

For `CCc1cc2cc(C(=O)C3CCC(OC)CC3)ccc2nc1-c1cccs1` (stereo not drawn) [Compound 30], the melting point turned out to be 142 °C.

Regarding `CCc1cc2cc(C(=O)C3CCC(OC)CC3)ccc2nc1-c1ccsc1` (stereo not drawn) [Compound 31], the melting point was 113 °C.

Turning to `Cc1cc2cc(C(=O)C3CCCCC3)ccc2[nH]c1=O` [Compound 50, 6-(cyclohexylcarbonyl)-3-methyl-2(1H)-quinolinone], the melting point is 256.1 °C.

The compound `CCc1cc2cc(/C(=N\N)C3CCC(OC)CC3)ccc2nc1OC` (stereo not drawn) [Compound 53] displayed a melting point of 110 °C.

Regarding `CCOC(=O)c1cc2cc(C(=O)Cc3ccccc3)ccc2nc1C` [Compound 306], the melting point worked out at 136 °C.

Consider `CCc1cc2cc(/C=C/c3ccccc3)ccc2nc1C` [Compound 471], for which the melting point turned out to be 140 °C.

The compound `c1ccc2c(-c3ccc4nc5c(cc4c3)CCS5)noc2c1` [Compound 514] showed a melting point of 185 °C.

Compound `CCc1cc2cc(-c3cc4ccccc4o3)ccc2nc1C` [Compound 515] showed a melting point of 134 °C.
